# Experimental data from patent US10457639B2, “Fluorescent regulators of RASSF1A expression and human cancer cell proliferation” (GEORGETOWN UNIVERSITY, priority 2008, dated 2019).
# Tests used:
# PC3 cells = assay: Cell growth assay, trypan blue dye exclusion count; assay type: cell-based
# Method: Cell Line and Cell Growth Assay. Human prostate cancer cell line PC-3 was procured from the American Type Cell Culture Collection (Manassas, Va.). Cells were grown in IMEM without phenol red (Invitrogen, Carlsbad, Calif.) with 10% fetal bovine serum, 2 mM glutamine, 100 U/mL penicillin G sodium, and 100 μg/mL streptomycin sulfate (Sigma, St. Louis, Mo.) in the presence of 5% CO2 at 37° C. For the cell growth experiment, PC-3 cells were seeded in 6-well plates in triplicate with an initial density of 2×10^3 cells per well. Twenty-four hours after seeding, the attached cells were treated with vehicle (DMSO) or 1, 5, 15, 30 and 60 μM compound. After another twenty-four hours, the cells were washed with 1×PBS, trypsinized and re-suspended in complete growth medium. Trypan blue (0.4%) was added to the cell suspension and both live and dead cells were counted using a hemocytometer.
# Compounds 6-10 were screened for growth inhibition in PC-3 human prostate cancer cells using previously reported methods (Table 1; Sinha et al. The Prostate. 2006, 66, 1257-1265). […] This was unexpected, since the methyl moiety of mahanine is in the 3-position. Compound 9, with its GI50 value near that of the compound 6 series (compounds 6, 6a, 8) and a deprotected hydroxyl group in the 2-position, implies that whatever hindrance is imposed by a methyl in the 3-position can be partially overcome if steric bulk at the 2-position is reduced. Indeed, looking at the structure of mahanine, the restraint of the ether cycle may provide enough reduction of apparent bulk at the 2-position to moderate its methyl in the 3-position. Additionally, the ether ring system puts the equivalent of a methyl group in the 1-position, which could also be aiding in the low μM activity of mahanine, if the relatively lower values for the compound 6 series are any indication. Moreover, analyzing the structure of compound 10 based on the same criteria, the double-bonded carbon of the ether cycle in the 3-position along with bulk off the 2-position might explain its lesser growth inhibition when compared to mahanine, while the methyl in the 1-position still gives it better activity than compounds 7 and 7a.
# [1] = tested on: DNA methyltransferase (DNMT); assay: DNA methyltransferase activity assay (EpiQuik kit, nuclear extracts of treated PC-3 cells); assay type: cell-based, human; settings: 72 hours, 5 μM (FIG. 7 legend; method says 2 μM)
# Method: Black bars: PC-3 cells were treated 72 hours with either mahanine or compound 6a at 5 μM or compound 6, 7, 7a, 8, or 9 at 15 μM and then assayed for DNMT activity using the DNMT activity kit from Epigentek. Data are mean of three independent experiments ±SEM. Grey bars: Densitometry from RT-PCR blot where the amount of RASSF1A mRNA re-expressed by mahanine treatment is normalized to 100%.
# DNA methyltransferase activity assay. PC-3 cells were plated in complete growth media, treated with either mahanine or compound 6a at 2 μM or compound 6, 7, 7a, 8, 9, 10 at 15 μM for 3 days and then harvested. Nuclear extracts were prepared according to manufacturer's protocol (Nuclear extraction kit, Epigentek). DNMT activity was measured using an EpiQuik DNA methyltransferase activity assay kit (Epigentek). Results were expressed as percent DNMT activity compared to the DMSO control as 100%.
# The levels of DNMT activity in treated versus untreated prostate cancer cells were measured using a DNMT assay kit from Epigentek. […] These reduced DNMT activities correlate with the pattern of RASSF1A induction described above (FIG. 7, grey bars). The data imply that inhibition of DNMT prevents hypermethylation of the RASSF1A promoter region and consequently restores RASSF1A.
# [2] = tested on: human prostate tumor xenografts (PC-3); assay: PC-3 human prostate xenograft study; assay type: in vivo, mouse; settings: athymic Balb/c nude mice, 10 mg/kg IP every other day, over 25 days
# Method: Male athymic Balb/c nude mice were injected with PC-3 cells and the resulting tumors allowed to grow for a week before dosing IP once a day every other day with 10 mg/kg compound 6a or DMSO control in 1:1 PEG/PBS. Data are presented as the mean±SEM (n=4).
# Cell Culture for Xenograft. PC-3 cell line (ATCC, Manassas, Va.) was cultured in RPMI-1640 with L-glutamine (Mediatech Inc., Herdon, Va.) containing 5% fetal bovine serum (FBS), 2.5 mM L-glutamine at 37° C. with 5% CO2.
# Xenograft Study. Male athymic Balb/c nude mice (18-22 g) were injected with 3×106 (0.3 mL) of the human prostate cancer cells (PC-3). The human prostate cancer cells were injected in the subcutaneous tissue of the right axillary region of the mice. One week after the injection, the mice were randomly sorted into two groups with four mice per group. A stock solution of compound 6a was obtained by dissolving 1 mg of compound in 1 μl DMSO. The stock was added to polyethylene glycol 400 (PEG) (Hampton) and PBS in a 1:1 ratio. The test concentrations were obtained by diluting with PEG/PBS. The tumor-bearing mice received an intraperitoneal injection (IP) with either 10 mg/kg of 6a or vehicle control once every other day for 4 weeks. At the same time, the tumor size of each mouse was measured by caliper and calculated by the formula: Length×width×height/2. […]
smiles,measurement,setting,value
"COc1ccc2c(c1)[nH]c1c(C)c(OS(=O)(=O)c3cccc4c(N(C)C)cccc34)ccc12 [Compound 6a, 7-Methoxy-1-methyl-9H-carbazol-2-yl 5-(dimethylamino)naphthalene-1-sulfonate]",cytotoxicity compared to mahanine,PC3 cells,less cytotoxic than mahanine
same,GI50,"PC3 cells; Homo sapiens, PC-3, concentration for 50% growth inhibition in PC3 cells, 24 hours of treatment, mean ± SEM of three observations, read-out: GI50",1.5 ± 0.11 µM
same,increase in activity compared to mahanine in inhibition of growth of prostate cancer cells,PC3 cells; refers to Table 1,5 fold
same,DNMT activity versus DMSO control,[1],most potent inhibition
same,reduction of tumor volume compared to control,[2],roughly 40%
